Experimental data: ChEMBL document CHEMBL5113482, “Discovery of fused benzimidazole-imidazole autophagic flux inhibitors for treatment of triple-negative breast cancer” (Eur J Med Chem, 2022)
Activity calls are given as the source filed them. No cut-off for these calls is given here.

Assays:
MDA-MB-468 [1] = experiment: Antiproliferative activity against human MDA-MB-468 cells assessed as cell growth inhibition measured after 48 hrs by MTT assay; type: functional, cell-based; details: MDA-MB-468, 48 h
SCC-25 = experiment: Antiproliferative activity against human SCC-25 cells assessed as cell growth inhibition measured after 48 hrs by MTT assay; type: functional, cell-based; details: SCC-25, 48 h
HSC-3 = experiment: Antiproliferative activity against human HSC-3 cells assessed as cell growth inhibition measured after 48 hrs by MTT assay; type: functional, cell-based; details: HSC-3, 48 h
PC-3 = experiment: Antiproliferative activity against human PC-3 cells assessed as cell growth inhibition measured after 48 hrs by MTT assay; type: functional, cell-based; details: PC-3, 48 h
ASPC1 = experiment: Antiproliferative activity against human ASPC cells assessed as cell growth inhibition measured after 48 hrs by MTT assay; type: functional, cell-based; details: ASPC1, 48 h
PANC-1 = experiment: Antiproliferative activity against human PANC cells assessed as cell growth inhibition measured after 48 hrs by MTT assay; type: functional, cell-based; details: PANC-1, 48 h
U-87 MG = experiment: Antiproliferative activity against human U87 cells assessed as cell growth inhibition measured after 48 hrs by MTT assay; type: functional, cell-based, U-87MG ATCC
MDA-MB-468 [2] = experiment: Inhibition of colony formation in human MDA-MB-468 cells at 5 to 20 umol/l pretreated for 48 hrs followed by replacement of fresh medium and measured after 15 days by crystal violet staining based assay; type: functional, cell-based; details: dose 5-20 µmol/L
[3] = biological target: Serine-protein kinase ATM (Homo sapiens) (UniProt Q13315); experiment: Activation of ATM phosphorylation in human MDA-MB-231 cells at 5 to 20 uM measured after 6 to 48 hrs by Western blot analysis; type: cell-based; details: filed as activator, dose 5-20 µM, time 6-48 hrs
[4] = biological target: T1, Structural maintenance of chromosomes protein 1A (Homo sapiens) (UniProt Q14683); experiment: Activation of SMC1 phosphorylation in human MDA-MB-231 cells at 5 to 20 uM measured after 6 to 48 hrs by Western blot analysis; type: cell-based; details: filed as activator, dose 5-20 µM, time 6-48 hrs
T1 sequence (whole entry): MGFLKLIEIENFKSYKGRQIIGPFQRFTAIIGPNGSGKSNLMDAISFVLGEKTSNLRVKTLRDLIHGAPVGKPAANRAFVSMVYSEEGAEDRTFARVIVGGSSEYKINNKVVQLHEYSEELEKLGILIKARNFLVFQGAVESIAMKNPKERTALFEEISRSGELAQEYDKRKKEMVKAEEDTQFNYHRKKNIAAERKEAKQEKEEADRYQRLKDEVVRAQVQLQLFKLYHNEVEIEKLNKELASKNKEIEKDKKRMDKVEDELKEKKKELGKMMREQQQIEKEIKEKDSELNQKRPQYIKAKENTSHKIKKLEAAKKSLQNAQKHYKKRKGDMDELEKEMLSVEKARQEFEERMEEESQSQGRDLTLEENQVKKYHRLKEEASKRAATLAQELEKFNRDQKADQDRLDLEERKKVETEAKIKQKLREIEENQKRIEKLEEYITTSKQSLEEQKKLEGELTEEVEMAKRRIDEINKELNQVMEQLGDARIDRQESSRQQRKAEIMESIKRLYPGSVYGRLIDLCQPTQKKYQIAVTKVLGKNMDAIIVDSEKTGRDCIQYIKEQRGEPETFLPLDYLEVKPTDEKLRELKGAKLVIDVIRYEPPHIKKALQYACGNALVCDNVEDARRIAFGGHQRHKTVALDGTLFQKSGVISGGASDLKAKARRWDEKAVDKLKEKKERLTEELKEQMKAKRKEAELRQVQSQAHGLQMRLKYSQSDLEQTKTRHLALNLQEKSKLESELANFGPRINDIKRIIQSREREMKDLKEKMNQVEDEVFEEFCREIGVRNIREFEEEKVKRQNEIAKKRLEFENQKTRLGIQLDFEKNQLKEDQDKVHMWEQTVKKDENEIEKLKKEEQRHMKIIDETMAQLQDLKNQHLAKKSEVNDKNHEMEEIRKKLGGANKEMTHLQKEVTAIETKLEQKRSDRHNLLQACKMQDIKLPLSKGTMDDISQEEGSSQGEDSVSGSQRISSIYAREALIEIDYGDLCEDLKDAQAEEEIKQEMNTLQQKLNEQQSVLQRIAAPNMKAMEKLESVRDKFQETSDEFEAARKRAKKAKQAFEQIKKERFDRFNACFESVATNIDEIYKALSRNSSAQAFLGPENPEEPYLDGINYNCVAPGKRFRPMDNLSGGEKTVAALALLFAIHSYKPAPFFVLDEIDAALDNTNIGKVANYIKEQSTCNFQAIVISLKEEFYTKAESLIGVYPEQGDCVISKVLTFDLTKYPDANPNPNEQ

MDA-MB-231 [5] = experiment: Induction of DNA damage in human MDA-MB-231 cells assessed as reduction in BRCA2 expression measured after 6 to 48 hrs by Western blot analysis; type: functional, cell-based; details: dose 5-20 µM, time 6-48 hrs, DDE = dose-dependent effect
MDA-MB-231 [6] = experiment: Cell cycle arrest in human MDA-MB-231 cells assessed as reduction in CDK2 expression measured after 48 hrs by Western blot analysis; type: functional, cell-based; details: dose 5-20 µM, DDE = dose-dependent effect
MDA-MB-468 [7] = experiment: Cell cycle arrest in human MDA-MB-468 cells assessed as reduction in cyclin A expression measured after 48 hrs by Western blot analysis; type: functional, cell-based; details: dose 5-20 µM, DDE = dose-dependent effect
MDA-MB-468 [8] = experiment: Cell cycle arrest in human MDA-MB-468 cells assessed as increase in CHK1 phosphorylation at Ser 345 residue measured after 48 hrs by Western blot analysis; type: functional, cell-based; details: dose 5-20 µM, DDE = dose-dependent effect
MDA-MB-468 [9] = experiment: Cell cycle arrest in human MDA-MB-468 cells assessed as increase in CHK2 phosphorylation at Thr 68 residue measured after 48 hrs by Western blot analysis; type: functional, cell-based; details: dose 5-20 µM, DDE = dose-dependent effect
MDA-MB-468 [10] = experiment: Induction of apoptosis in human MDA-MB-468 cells assessed as increase in late apoptotic cells measured after 48 hrs by Annexin V-FITC/propidium iodide staining based flow cytometry; type: functional, cell-based; details: dose 5-20 µM, DDE = dose-dependent effect
MDA-MB-231 [11] = experiment: Induction of apoptosis in human MDA-MB-231 cells assessed as increase in Bim expression measured after 48 hrs by Western blot analysis; type: functional, cell-based; details: dose 5-20 µM, DDE = dose-dependent effect
MDA-MB-231 [12] = experiment: Induction of apoptosis in human MDA-MB-231 cells assessed as increase in cleaved caspase-9 expression measured after 48 hrs by Western blot analysis; type: functional, cell-based; details: dose 5-20 µM, DDE = dose-dependent effect
MDA-MB-468 [13] = experiment: Induction of apoptosis in human MDA-MB-468 cells assessed as increase in Bim expression measured after 48 hrs by Western blot analysis; type: functional, cell-based; details: dose 5-20 µM, DDE = dose-dependent effect
MDA-MB-468 [14] = experiment: Induction of apoptosis in human MDA-MB-468 cells assessed as increase in cleaved caspase-9 expression measured after 48 hrs by Western blot analysis; type: functional, cell-based; details: dose 5-20 µM, DDE = dose-dependent effect
MDA-MB-468 [15] = experiment: Induction of apoptosis in human MDA-MB-468 cells assessed as increase in cleaved PARP expression measured after 48 hrs by Western blot analysis; type: functional, cell-based; details: dose 5-20 µM, DDE = dose-dependent effect
MDA-MB-231 [16] = experiment: Antitumor activity against human MDA-MB-231 cells xenografted in ip dosed NOD/SCID mouse assessed as upregulation of LC3B-II expression administered at 3 days interval for 24 days and measured on day 25 by Western blot analysis; type: functional, organism-based; details: dose 5-15 mg/kg, time 25.0 day, DDE = dose-dependent effect
MDA-MB-231 [17] = experiment: Antitumor activity against human MDA-MB-231 cells xenografted in ip dosed NOD/SCID mouse assessed as upregulation of p62 expression administered at 3 days interval for 24 days and measured on day 25 by Western blot analysis; type: functional, organism-based; details: dose 5-15 mg/kg, time 25.0 day, DDE = dose-dependent effect

Sequence of Serine-protein kinase ATM (Homo sapiens) (Q13315 whole entry): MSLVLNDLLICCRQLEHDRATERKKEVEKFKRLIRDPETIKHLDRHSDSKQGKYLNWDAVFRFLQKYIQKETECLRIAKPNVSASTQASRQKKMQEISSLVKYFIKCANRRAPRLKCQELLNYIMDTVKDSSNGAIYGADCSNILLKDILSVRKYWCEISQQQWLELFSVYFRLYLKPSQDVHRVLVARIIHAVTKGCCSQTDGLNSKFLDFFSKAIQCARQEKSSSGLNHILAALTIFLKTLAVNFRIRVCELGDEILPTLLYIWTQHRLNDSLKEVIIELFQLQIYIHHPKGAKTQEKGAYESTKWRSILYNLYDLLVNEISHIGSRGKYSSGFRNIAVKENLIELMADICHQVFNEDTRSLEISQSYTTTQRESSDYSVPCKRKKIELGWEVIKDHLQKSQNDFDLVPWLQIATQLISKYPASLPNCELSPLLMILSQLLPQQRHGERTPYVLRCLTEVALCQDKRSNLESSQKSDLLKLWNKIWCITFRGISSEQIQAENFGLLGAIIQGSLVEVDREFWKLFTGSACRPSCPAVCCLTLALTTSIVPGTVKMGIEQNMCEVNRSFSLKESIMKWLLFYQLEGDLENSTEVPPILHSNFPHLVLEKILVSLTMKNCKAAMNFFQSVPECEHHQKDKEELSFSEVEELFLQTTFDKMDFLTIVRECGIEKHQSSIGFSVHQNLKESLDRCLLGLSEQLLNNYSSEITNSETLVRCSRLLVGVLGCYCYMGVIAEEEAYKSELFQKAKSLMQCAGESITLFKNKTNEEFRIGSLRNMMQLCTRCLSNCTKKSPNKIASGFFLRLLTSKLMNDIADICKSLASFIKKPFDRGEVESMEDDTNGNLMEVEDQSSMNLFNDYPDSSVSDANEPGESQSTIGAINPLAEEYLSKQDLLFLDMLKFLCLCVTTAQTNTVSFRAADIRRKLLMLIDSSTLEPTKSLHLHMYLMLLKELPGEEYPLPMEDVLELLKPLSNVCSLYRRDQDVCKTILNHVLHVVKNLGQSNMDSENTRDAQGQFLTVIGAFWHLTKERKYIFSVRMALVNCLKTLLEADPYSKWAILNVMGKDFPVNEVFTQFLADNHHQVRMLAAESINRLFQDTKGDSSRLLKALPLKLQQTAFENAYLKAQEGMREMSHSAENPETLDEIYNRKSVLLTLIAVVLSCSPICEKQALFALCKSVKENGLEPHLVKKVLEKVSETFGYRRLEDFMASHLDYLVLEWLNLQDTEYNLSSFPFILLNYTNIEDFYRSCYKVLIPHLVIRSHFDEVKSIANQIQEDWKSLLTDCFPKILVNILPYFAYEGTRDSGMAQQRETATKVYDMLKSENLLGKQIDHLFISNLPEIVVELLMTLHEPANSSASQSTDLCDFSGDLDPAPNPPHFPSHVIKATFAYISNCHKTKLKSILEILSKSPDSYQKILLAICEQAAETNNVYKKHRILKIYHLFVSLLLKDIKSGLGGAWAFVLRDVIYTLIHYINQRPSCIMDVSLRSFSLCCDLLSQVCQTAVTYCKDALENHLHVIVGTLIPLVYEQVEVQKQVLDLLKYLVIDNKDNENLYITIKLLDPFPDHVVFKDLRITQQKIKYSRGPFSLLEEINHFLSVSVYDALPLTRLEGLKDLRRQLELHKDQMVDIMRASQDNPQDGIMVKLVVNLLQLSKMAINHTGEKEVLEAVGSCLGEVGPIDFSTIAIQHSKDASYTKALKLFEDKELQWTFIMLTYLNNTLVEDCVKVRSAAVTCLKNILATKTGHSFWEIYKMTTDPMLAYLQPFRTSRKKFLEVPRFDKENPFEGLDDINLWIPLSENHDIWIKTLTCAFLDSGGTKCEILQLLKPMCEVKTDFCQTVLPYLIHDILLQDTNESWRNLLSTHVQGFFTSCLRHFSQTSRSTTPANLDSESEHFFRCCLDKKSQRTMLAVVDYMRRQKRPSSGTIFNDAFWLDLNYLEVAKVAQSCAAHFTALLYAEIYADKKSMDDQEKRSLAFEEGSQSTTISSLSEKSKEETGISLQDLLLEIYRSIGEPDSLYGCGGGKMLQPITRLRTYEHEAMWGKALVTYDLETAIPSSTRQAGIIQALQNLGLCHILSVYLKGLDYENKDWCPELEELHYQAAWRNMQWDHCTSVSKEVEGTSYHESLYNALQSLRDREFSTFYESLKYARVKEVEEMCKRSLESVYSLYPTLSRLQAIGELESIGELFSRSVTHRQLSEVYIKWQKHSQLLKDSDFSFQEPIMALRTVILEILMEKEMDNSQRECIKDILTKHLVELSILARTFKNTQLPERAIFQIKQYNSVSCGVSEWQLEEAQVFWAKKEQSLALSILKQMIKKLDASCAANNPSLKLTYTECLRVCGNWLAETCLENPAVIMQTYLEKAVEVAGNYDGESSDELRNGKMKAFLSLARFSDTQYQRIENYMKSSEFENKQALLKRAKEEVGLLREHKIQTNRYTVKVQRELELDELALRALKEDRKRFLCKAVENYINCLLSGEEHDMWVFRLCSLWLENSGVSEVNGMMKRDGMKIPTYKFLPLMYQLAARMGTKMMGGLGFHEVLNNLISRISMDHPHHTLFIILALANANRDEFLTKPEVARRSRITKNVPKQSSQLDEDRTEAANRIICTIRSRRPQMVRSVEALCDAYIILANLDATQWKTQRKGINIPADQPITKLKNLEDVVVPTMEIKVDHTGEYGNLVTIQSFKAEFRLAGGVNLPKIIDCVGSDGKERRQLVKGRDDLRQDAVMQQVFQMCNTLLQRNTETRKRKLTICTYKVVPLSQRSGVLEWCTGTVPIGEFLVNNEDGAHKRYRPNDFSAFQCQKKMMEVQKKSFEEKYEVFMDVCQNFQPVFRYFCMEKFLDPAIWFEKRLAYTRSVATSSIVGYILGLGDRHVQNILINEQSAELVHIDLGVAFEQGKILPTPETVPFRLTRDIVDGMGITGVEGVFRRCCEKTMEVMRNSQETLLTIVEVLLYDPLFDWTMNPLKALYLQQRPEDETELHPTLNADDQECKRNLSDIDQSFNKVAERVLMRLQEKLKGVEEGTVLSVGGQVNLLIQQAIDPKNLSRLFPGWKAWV

- IC50 (MDA-MB-468 [1]): 6.03 µM
- IC50 (PC-3): 17.5 µM
- IC50 (ASPC1): 26.9 µM
- IC50 (PANC-1): 19.2 µM
- IC50 (U-87 MG): 15.4 µM
- Activity [3]: Active
- Activity [4]: Active
SMILES: O=C(NC1CCCCC1)c1[nH]cnc1-c1nc2ccccc2[nH]1
- IC50 (SCC-25): 18.6 µM
- IC50 (HSC-3): 24 µM
- inhibition (MDA-MB-468 [2]): Active
- Activity (MDA-MB-231 [5]): Dde
- Activity (MDA-MB-231 [6]): Dde
- Activity (MDA-MB-468 [7]): Dde
- Activity (MDA-MB-468 [8]): Dde
- Activity (MDA-MB-468 [9]): Dde
- Activity (MDA-MB-468 [10]): Dde
- Activity (MDA-MB-231 [11]): Dde
- Activity (MDA-MB-231 [12]): Dde
- Activity (MDA-MB-468 [13]): Dde
- Activity (MDA-MB-468 [14]): Dde
- Activity (MDA-MB-468 [15]): Dde
- Activity (MDA-MB-231 [16]): Dde
- Activity (MDA-MB-231 [17]): Dde
